Test results reported in patent publication US20250129067A1 (Progentos Therapeutics, Inc., priority 2021, published 2025).

Legend:
[1] = target: PDGFRα (Homo sapiens (Human), UniProt P16234); assay: PDGFRα kinase enzyme assay (Promega PDGFRα Kinase Enzyme System, ADP-Glo); type: biochemical; settings: 11-point dose response, 10,000 nM to 0.169 nM, 150 uM ATP, BLQ = below limit of quantitation; for IC50: read-out: IC50 Values on PDGFRα Kinase Inhibition, IC50
Summary of the method: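 Read-out was ADP-Glo: remaining ATP depleted, ADP converted to luminescence and compared with a standard curve.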

[2] = tested on: Oligodendrocyte progenitor cells (OPCs); assay: In vitro OPC differentiation assay, GPR17 expression (immunocytochemistry); settings: 3 μM (10× concentration, final 0.3 μM); 72 hours; fold change over vehicle

Sequence of PDGFRα (P16234 24-1089): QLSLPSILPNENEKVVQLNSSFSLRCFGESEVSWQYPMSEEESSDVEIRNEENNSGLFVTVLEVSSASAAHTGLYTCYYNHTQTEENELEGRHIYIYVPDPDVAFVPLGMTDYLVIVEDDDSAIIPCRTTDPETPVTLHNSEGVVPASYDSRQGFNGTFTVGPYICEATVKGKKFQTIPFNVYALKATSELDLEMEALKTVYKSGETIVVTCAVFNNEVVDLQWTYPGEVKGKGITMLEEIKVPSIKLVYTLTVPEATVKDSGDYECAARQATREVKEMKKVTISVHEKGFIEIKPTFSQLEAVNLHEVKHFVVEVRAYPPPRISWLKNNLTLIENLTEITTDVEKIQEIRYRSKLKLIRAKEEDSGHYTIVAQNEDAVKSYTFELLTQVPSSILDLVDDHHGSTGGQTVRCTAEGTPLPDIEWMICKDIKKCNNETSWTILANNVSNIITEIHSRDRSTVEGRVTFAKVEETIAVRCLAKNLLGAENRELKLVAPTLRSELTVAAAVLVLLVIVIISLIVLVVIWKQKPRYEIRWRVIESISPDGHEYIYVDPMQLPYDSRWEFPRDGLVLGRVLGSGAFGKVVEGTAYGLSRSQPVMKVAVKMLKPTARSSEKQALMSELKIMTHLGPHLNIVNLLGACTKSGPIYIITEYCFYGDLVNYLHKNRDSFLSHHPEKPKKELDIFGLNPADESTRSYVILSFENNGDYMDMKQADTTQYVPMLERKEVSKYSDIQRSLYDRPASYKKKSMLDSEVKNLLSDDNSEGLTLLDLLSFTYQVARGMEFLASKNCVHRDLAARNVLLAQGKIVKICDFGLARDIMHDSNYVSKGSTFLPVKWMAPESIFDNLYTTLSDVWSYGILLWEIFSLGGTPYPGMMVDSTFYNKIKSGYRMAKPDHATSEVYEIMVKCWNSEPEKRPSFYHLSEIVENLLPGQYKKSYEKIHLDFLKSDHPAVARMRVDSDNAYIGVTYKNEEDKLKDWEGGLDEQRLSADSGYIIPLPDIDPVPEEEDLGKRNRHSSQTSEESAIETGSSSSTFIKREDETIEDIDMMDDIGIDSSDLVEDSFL

## Cn1cc(-c2ccc3c(C4CCC(C(=O)OCc5ccccc5)C4)cnn3c2)cn1 (stereo not drawn) [Compound 137]
[1]
  IC50: 5.05 µM
[2]
  GPR17 Fold Induction (Over Vehicle; 3 μM): 0.99

## CC1CN(C(=O)OC(C)(C)C)CCN1c1cnn2cc(-c3cnn(C)c3)ccc12 (stereo not drawn) [Compound 240, tert-butyl 3-methyl-4-(6-(1-methyl-1H-pyrazol-4-yl)pyrazolo[1,5-a]pyridin-3-yl)piperazine-1-carboxylate]
[1]
  IC50: 9.41 µM
[2]
  GPR17 Fold Induction (Over Vehicle; 3 μM): 4.67

## CC(C)(C)OC(=O)N1CCN(c2cnc3nc(C4CCOC4)ccn23)CC1 (stereo not drawn) [Compound 103, tert-butyl 4-(7-(tetrahydrofuran-3-yl)imidazo[1,2-a]pyrimidin-3-yl)piperazine-1-carboxylate]
[1]
  IC50: > 10 µM
[2]
  GPR17 Fold Induction (Over Vehicle; 3 μM): 0.65

## Cn1cc(-c2ccc3c(NCCNc4ncc(Cc5ccccc5)cn4)cnn3c2)cn1 [Compound 123, N^1-(5-benzylpyrimidin-2-yl)-N^2-(6-(1-methyl-1H-pyrazol-4-yl)pyrazolo[1,5-a]pyridin-3-yl)ethane-1,2-diamine]
[1]
  IC50: > 10 µM
[2]
  GPR17 Fold Induction (Over Vehicle; 3 μM): 1.34

## C[C@H](c1ccc(Cl)cc1)N(C)C(=O)N1CCN(c2cnn3cc(-c4cnn(C)c4)ccc23)CC1 [Compound 276, (R)—N-(1-(4-chlorophenyl)ethyl)-N-methyl-4-(6-(1-methyl-1H-pyrazol-4-yl)pyrazolo[1,5-a]pyridin-3-yl)piperazine-1-carboxamide]
[1]
  IC50: 2.7 µM
[2]
  GPR17 Fold Induction (Over Vehicle; 3 μM): 2.11

## Cn1cc(-c2ccc3c(N4CCN(c5ncc(Cc6ccccc6)cn5)CC4)nnn3c2)cn1 [Compound 9, 3-[4-(5-benzylpyrimidin-2-yl)piperazin-1-yl]-6-(1-methyl-1H-pyrazol-4-yl)[1,2,3]triazolo[1,5-a]pyridine]
[1]
  IC50: > 10 µM
[2]
  GPR17 Fold Induction (Over Vehicle; 3 μM): 1.88

## Cn1cc(-c2ccc3c(N4CCN(c5ncc(CC6CCCOC6)cn5)CC4)cnn3c2)cn1 (stereo not drawn) [Compound 185, 6-(1-methyl-1H-pyrazol-4-yl)-3-(4-(5-((tetrahydro-2H-pyran-3-yl)methyl)pyrimidin-2-yl)piperazin-1-yl)pyrazolo[1,5-a]pyridine]
[1]
  IC50: 0.51 µM
[2]
  GPR17 Fold Induction (Over Vehicle; 3 μM): 12.67

## Cn1cc(-c2ccc3c(N4CCC(C(=O)NCc5ccccc5)CC4)cnn3c2)cn1 [Compound 146, N-benzyl-1-(6-(1-methyl-1H-pyrazol-4-yl)pyrazolo[1,5-a]pyridin-3-yl)piperidine-4-carboxamide]
[1]
  IC50: 5.69 µM
[2]
  GPR17 Fold Induction (Over Vehicle; 3 μM): 4.45

## CC(C)(C)OC(=O)N1CCN(c2cnn3cc(-c4cnn5c4CCCC5)ccc23)CC1 [Compound 236, tert-butyl 4-(4,5,6,7-tetrahydro-[3,6′-bipyrazolo[1,5-a]pyridin]-3′-yl)piperazine-1-carboxylate]
[1]
  IC50: 0.696 µM
[2]
  GPR17 Fold Induction (Over Vehicle; 3 μM): 6.03

## COc1ccccc1-c1ccc2c(N3CCN(C(=O)OC(C)(C)C)CC3)cnn2c1 [Compound 212, tert-butyl 4-(6-(2-methoxyphenyl)pyrazolo[1,5-a]pyridin-3-yl)piperazine-1-carboxylate]
[1]
  IC50: 3.67 µM
[2]
  GPR17 Fold Induction (Over Vehicle; 3 μM): 2.51

## Cn1cc(-c2ccc3c(C4=CCN(c5ncc(Cc6ccccc6)cn5)CC4)cnn3c2)cn1 [Compound 60, 3-[1-(5-benzylpyrimidin-2-yl)-1,2,3,6-tetrahydropyridin-4-yl]-6-(1-methyl-1H-pyrazol-4-yl)pyrazolo[1,5-a]pyridine]
[1]
  IC50: 5.03 µM
[2]
  GPR17 Fold Induction (Over Vehicle; 3 μM): 2.92

## Cc1c(-c2ccc3c(N4CCN(C(=O)OC(C)(C)C)CC4)cnn3c2)cnn1C [Compound 221, tert-butyl 4-(6-(1,5-dimethyl-1H-pyrazol-4-yl)pyrazolo[1,5-a]pyridin-3-yl)piperazine-1-carboxylate]
[1]
  IC50: 0.506 µM
[2]
  GPR17 Fold Induction (Over Vehicle; 3 μM): 6.61

## CC(C)(C)OC(=O)N1CCN(c2cnn3cc(-c4cccc(F)c4)ccc23)CC1 [Compound 208, tert-butyl 4-(6-(3-fluorophenyl)pyrazolo[1,5-a]pyridin-3-yl)piperazine-1-carboxylate]
[1]
  IC50: > 10 µM
[2]
  GPR17 Fold Induction (Over Vehicle; 3 μM): 1.22

## Cn1cc(-c2ccc3c(N4CCN(c5ncc(CN6CCc7ccccc76)cn5)CC4)cnn3c2)cn1 [Compound 174, 3-(4-(5-(indolin-1-ylmethyl)pyrimidin-2-yl)piperazin-1-yl)-6-(1-methyl-1H-pyrazol-4-yl)pyrazolo[1,5-a]pyridine]
[1]
  IC50: 0.306 µM
[2]
  GPR17 Fold Induction (Over Vehicle; 3 μM): 6.67

## CC(C)(C)OC(=O)N1CCN(c2cnn3cc(C4CCOC4)ccc23)CC1 (stereo not drawn) [Compound 304, tert-butyl 4-(6-(tetrahydrofuran-3-yl)pyrazolo[1,5-a]pyridin-3-yl)piperazine-1-carboxylate]
[1]
  IC50: > 10 µM
[2]
  GPR17 Fold Induction (Over Vehicle; 3 μM): 1.77

## C[C@@H](OC(=O)N1CCN(c2cnc3cc(-c4cnn(C)c4)ncn23)CC1)c1ccccc1 [Compound 115, (R)-1-phenylethyl 4-(7-(1-methyl-1H-pyrazol-4-yl)imidazo[1,2-c]pyrimidin-3-yl)piperazine-1-carboxylate]
[1]
  IC50: > 10 µM
[2]
  GPR17 Fold Induction (Over Vehicle; 3 μM): 2.46

## C[C@@H](NC(=O)N1CCN(c2cnn3cc(-c4cnn(C)c4)ccc23)CC1)c1ccc(C(F)(F)F)cc1 [Compound 288, 4-[6-(1-methyl-1H-pyrazol-4-yl)pyrazolo[1,5-a]pyridin-3-yl]-N-{(1R)-1-[4-(trifluoromethyl)phenyl]ethyl}piperazine-1-carboxamide]
[1]
  IC50 Values on PDGFRα Kinase Inhibition, IC50 (nM): BLQ
[2]
  GPR17 Fold Induction (Over Vehicle; 3 μM): 5.92

## COCCn1cc(-c2ccn3c(N4CCN(C(=O)OC(C)(C)C)CC4)cnc3n2)cn1 [Compound 101, tert-butyl 4-(7-(1-(2-methoxyethyl)-1H-pyrazol-4-yl)imidazo[1,2-a]pyrimidin-3-yl)piperazine-1-carboxylate]
[1]
  IC50: 3.42 µM
[2]
  GPR17 Fold Induction (Over Vehicle; 3 μM): 0.67

## Cn1cc(-c2ccc3c(N4CCN(c5ncc(Sc6ccccc6)cn5)CC4)cnn3c2)cn1 [Compound 188, 6-(1-methyl-1H-pyrazol-4-yl)-3-(4-(5-(phenylthio)pyrimidin-2-yl)piperazin-1-yl)pyrazolo[1,5-a]pyridine]
[1]
  IC50: 5.1 µM
[2]
  GPR17 Fold Induction (Over Vehicle; 3 μM): 6.03

## Cn1cc(-c2ccc3c(N4CC=C(c5ncc(Cc6ccccc6)cn5)CC4)cnn3c2)cn1 [Compound 300, 3-(4-(5-benzylpyrimidin-2-yl)-3,6-dihydropyridin-1 (2H)-yl)-6-(1-methyl-1H-pyrazol-4-yl)pyrazolo[1,5-a]pyridine]
[1]
  IC50: 3.55 µM
[2]
  GPR17 Fold Induction (Over Vehicle; 3 μM): 1.24

## Cn1cc(-c2ccc3c(N4CCN(C5=NCC(c6ccccc6)O5)CC4)cnn3c2)cn1 (stereo not drawn) [Compound 56, 6-(1-Methyl-1H-pyrazol-4-yl)-3-[4-(5-phenyl-4,5-dihydro-1,3-oxazol-2-yl)piperazin-1-yl]pyrazolo[1,5-a]pyridine]
[1]
  IC50: 1.44 µM
[2]
  GPR17 Fold Induction (Over Vehicle; 3 μM): 4.54

## CC(C)(C)OC(=O)N1CCN(c2cnn3cc(-c4ccccn4)ccc23)CC1 [Compound 216, tert-butyl 4-[6-(pyridin-2-yl)pyrazolo[1,5-a]pyridin-3-yl]piperazine-1-carboxylate]
[1]
  IC50: 1 µM
[2]
  GPR17 Fold Induction (Over Vehicle; 3 μM): 1.92

## Cn1cc(-c2ccc3c(N4CCN(S(=O)(=O)NCc5ccc(C(F)(F)F)cc5)CC4)cnn3c2)cn1 [Compound 294, 4-(6-(1-methyl-1H-pyrazol-4-yl)pyrazolo[1,5-a]pyridin-3-yl)-N-(4-(trifluoromethyl)benzyl)piperazine-1-sulfonamide]
[1]
  IC50: 0.00596 µM
[2]
  GPR17 Fold Induction (Over Vehicle; 3 μM): 9.58

## COCCn1cc(-c2ccn3c(N(C)CCN(C)C(=O)OC(C)(C)C)cnc3n2)cn1 [Compound 109, tert-butyl (2-((7-(1-(2-methoxyethyl)-1H-pyrazol-4-yl)imidazo[1,2-a]pyrimidin-3-yl)(methyl)amino)ethyl)(methyl)carbamate]
[1]
  IC50: > 10 µM
[2]
  GPR17 Fold Induction (Over Vehicle; 3 μM): 1.38

## Cn1cc(-c2ccc3c(N4CCN(c5ncc([C@H](O)[C@@H]6CCCOC6)cn5)CC4)cnn3c2)cn1 [Compound 192, (R)-(2-(4-(6-(1-methyl-1H-pyrazol-4-yl)pyrazolo[1,5-a]pyridin-3-yl)piperazin-1-yl)pyrimidin-5-yl)((R)-tetrahydro-2H-pyran-3-yl)methanol]
[1]
  IC50: 0.031 µM
[2]
  GPR17 Fold Induction (Over Vehicle; 3 μM): 14.76

## Cn1cc(-c2ccc3c(C4CCC(COc5ccccc5)CC4)cnn3c2)cn1 (stereo not drawn) [Compound 138, 6-(1-methyl-1H-pyrazol-4-yl)-3-(4-(phenoxymethyl)cyclohexyl)pyrazolo[1,5-a]pyridine]
[1]
  IC50: 9.01 µM
[2]
  GPR17 Fold Induction (Over Vehicle; 3 μM): 0.98

## CC(C)(C)OC(=O)N1CCN(c2cnc3nc(-c4cccnc4)ccn23)CC1 [Compound 102, tert-butyl 4-(7-(pyridin-3-yl)imidazo[1,2-a]pyrimidin-3-yl)piperazine-1-carboxylate]
[1]
  IC50: 6.98 µM
[2]
  GPR17 Fold Induction (Over Vehicle; 3 μM): 0.58

## Cn1cc(-c2ccc3c(N4CCN(c5nnc(Cc6ccccc6)o5)CC4)cnn3c2)cn1 [Compound 155, 2-benzyl-5-(4-(6-(1-methyl-1H-pyrazol-4-yl)pyrazolo[1,5-a]pyridin-3-yl)piperazin-1-yl)-1,3,4-oxadiazole]
[1]
  IC50: 0.0586 µM
[2]
  GPR17 Fold Induction (Over Vehicle; 3 μM): 5.02

## CN(Cc1ccccc1)C(=O)C1CC=C(c2cnn3cc(-c4cnn(C)c4)ccc23)C1 (stereo not drawn) [Compound 135, N-benzyl-N-methyl-3-(6-(1-methyl-1H-pyrazol-4-yl)pyrazolo[1,5-a]pyridin-3-yl)cyclopent-3-ene-1-carboxamide]
[1]
  IC50: 3.63 µM
[2]
  GPR17 Fold Induction (Over Vehicle; 3 μM): 7.38

## Cn1cc(-c2cc3ncc(N4CCN(c5ncc(Cc6ccccc6)cn5)CC4)n3cn2)cn1 [Compound 113, 3-(4-(5-benzylpyrimidin-2-yl)piperazin-1-yl)-7-(1-methyl-1H-pyrazol-4-yl)imidazo[1,2-c]pyrimidine]
[1]
  IC50: > 10 µM
[2]
  GPR17 Fold Induction (Over Vehicle; 3 μM): 0.57
